Assays:
[1] = In vitro inhibition of calcium phosphate crystallization in human plasma (spectrophotometric assay); assay type: biochemical; settings: 0-100 μM, 1.5 mM phosphate, 12.5 mM calcium, pH 7.4, absorbance 550 nm, slope 6-24 min, read-out: Relative Potency
Description: The in vitro efficacy of the IP4-4,6 substituted derivatives (e.g., Compounds 1 to 53) of the invention on the inhibition of calcium phosphate crystallization in human plasma samples was evaluated according to a spectrophotometric assay previously described in the art (Ferrer M, et al., Sci Rep 2017; 7:6858, doi:10.1038/s41598-017-07203-x).
A 96-well plate was employed. Plasma was spiked (1 volume of the IP4-4,6 substituted derivatives of the invention per 19 volumes of plasma) with increasing concentrations of the derivatives in the range of 0-100 μM. Plasma was then centrifuged at 10,000 g at rt and subsequently mixed with a mixture of 5 mM hydrogen phosphate and 41.67 mM calcium to attain final concentrations of 1.5 mM phosphate and 12.5 mM calcium, respectively. All reagent solutions were filtered, and pH adjusted to 7.4.
Crystallization of calcium phosphate was monitored spectrophotometrically for 30 min at rt by measuring the increments in absorbance at 550 nm using the Biotek Powerwave XS Microplate spectrophotometer (BioTek Instruments, Inc., Winooski, VT, US). The plate was incubated at rt in an orbital shaker and absorbance measured every 3 min.
Plasma crystallization was assessed based on slope measurement in the linear range between 6 and 24 min from plots of increase in absorbance versus logarithm of time. The efficacy of different myo-inositol phosphates derivatives in preventing in vitro formation of calcium phosphate crystals was assessed in human plasma samples using the slopes obtained between 6- and 24-min. Inhibition of crystallization was measured by comparing the slopes of the control sample (blank plasma) with those of samples containing the inhibitor as shown below: […]

tissue calcification = assay: In vivo tissue calcification (calcium content by ICP-OES) in vitamin D3-induced limb ischemia rat model; settings: SD rats, vitamin D3 150,000 IU/kg s.c. D1-D3, 30 mg/kg s.c. daily D1-D5, sacrifice D5; for Inhibition of calcification (%) Femoral: femoral arteries; for Inhibition of calcification (%) Kidney: right kidney
Description: (§1) The effects of compounds 1, 6, 9, 14, 18, 31, and 39 over blood perfusion and tissue calcification after the inception of limb ischemia were tested using a rat model for a duration of 5 days. Limb ischemia was induced to all groups from D1 to D3 excepting the sham group, to which no ischemia was induced. The animals were administered placebo and active agent formulations from D1 to D5. Observations were taken at several points during the treatment from D0 to D5. All animals were weighed every day before treatment. Seventy-two male Sprague Dawley (SD) rats (Envigo Corp., Huntingdon, GB) weighing approximately 150-200 g were used. The rats were fed with a […]® Rod14-H diet ([…] GmbH, Soest, DE). The rats were divided in 9 groups, 8 animals per group, as follows: • Group 1-Control (Sham) • Group 2-Physiological saline solution • Group 3-Compound 1 • Group 4-Compound 6 • Group 5-Compound 9 • Group 6-Compound 14 • Group 7-Compound 18 • Group 8-Compound 31 • Group 9-Compound 39 Limb ischemia was induced in the rats of groups 2-9 by subcutaneous administration of 150,000 IU/kg vitamin D3 (cholecalciferol, Duphafral D3 1000; Zoetis Inc., Parsippany, NJ, US) in physiological saline solution (2 mL/kg) every day during D1 to D3. The rats of group 1 were not administered vitamin D3. The rats in groups 1 and 2 were administered 2 mL/kg of physiological saline solution daily from D1 to D5 via subcutaneous route. The animals in groups 3-9 were administered subcutaneously 30 mg/kg of compounds 1, 6, 9, 14, 18, 31, and 39, respectively, in physiological saline solution (2 mL/kg), every day from D1 to D5. All rats of groups 1-9 were sacrificed on D5 30 minutes after dosing for determining their Ca baseline values. The animals were anesthetized by isoflurane inhalation. The whole aorta, carotids, femoral arteries, heart, and right kidney of the subjects were collected for calcium content measurement. The tissues were lyophilized for 48-72 h and weighed. The lyophilized tissues were then digested using a 1:1 HNO3:HClO4 mixture in a dry bath incubator for 2-4 h at 180° C. The digested tissues were subsequently diluted using ultra-pure MilliQ® water (MilliporeSigma (Merck KGaA), Burlington, MA, US) to a final volume of 5 mL (i.e., for femoral arteries and carotids) of 10 mL (i.e., for heart, kidneys, and aorta). Calcium content was quantified via inductively coupled plasma optical emission spectrometry (ICP-OES) using an Optima 7300 DV ICP-OES System spectrometer (PerkinElmer, Inc., Waltham, MA, US) according to the manufacturer's instructions. Average blood perfusion recovery compared to vehicle and sham were also calculated. Recovery for sham was 100%. Blood perfusion recovery calculated was using the following equation: 100-((BP sham-BP new drug)/(BP sham-BP vehicle)*100).

blood perfusion = assay: In vivo blood perfusion (laser doppler perfusion imaging) in vitamin D3-induced limb ischemia rat model; settings: average blood perfusion recovery vs vehicle and sham (sham 100%), SD rats, 30 mg/kg s.c. daily D1-D5
Description: as §1, with “to D5. Limb functional and ischemia status were evaluated by using a laser doppler perfusion imaging apparatus PeriCam PSI Normal Resolution (Perimed AB, Järfälla, SE) in all groups at D0 and D5. The perfusion difference and perfusion ratio were calculated by comparing the baseline and either D0 or D5 readings for each group. In addition, the blood perfusion ratio of each treatment group (i.e., groups 2 to 9) to sham group was also calculated. All rats” for “to D5. All rats”

CCCCCO[C@@H]1[C@@H](OP(=O)([O-])[O-])[C@H](OCCCCC)[C@@H](OP(=O)([O-])[O-])[C@@H](OP(=O)([O-])[O-])[C@H]1OP(=O)([O-])[O-].[Na+].[Na+].[Na+].[Na+].[Na+].[Na+].[Na+].[Na+] [Compound 1, 4,6-O-dipentyl-myo-inositol-1,2,3,5-tetrakis(phosphate) octasodium salt]
EC50 [1]: ≤ 5 µM
Inhibition of calcification (%) Aorta (tissue calcification): Over (Average inhibition percentage over or under 25% inhibition of calcification.)
Inhibition of calcification (%) Carotid (tissue calcification): Under (Average inhibition percentage over or under 25% inhibition of calcification.)
Inhibition of calcification (%) Femoral (tissue calcification): Over (Average inhibition percentage over or under 25% inhibition of calcification.)
Inhibition of calcification (%) Heart (tissue calcification): Over (Average inhibition percentage over or under 25% inhibition of calcification.)
Inhibition of calcification (%) Kidney (tissue calcification): Over (Average inhibition percentage over or under 25% inhibition of calcification.)
BP recovery (%) (blood perfusion): Under (Average blood perfusion recovery over or under 25%.)

O=P([O-])([O-])O[C@@H]1[C@@H](OCCCCCO)[C@H](OP(=O)([O-])[O-])[C@H](OP(=O)([O-])[O-])[C@H](OP(=O)([O-])[O-])[C@H]1OCCCCCO.[Na+].[Na+].[Na+].[Na+].[Na+].[Na+].[Na+].[Na+] [Compound 6, 4,6-O-bis(5-hydroxypentyl)-myo-inositol-1,2,3,5-tetrakis(phosphate) octasodium salt]
EC50 [1]: ≤ 5 µM
Inhibition of calcification (%) Aorta (tissue calcification): Over (Average inhibition percentage over or under 25% inhibition of calcification.)
Inhibition of calcification (%) Carotid (tissue calcification): Under (Average inhibition percentage over or under 25% inhibition of calcification.)
Inhibition of calcification (%) Femoral (tissue calcification): Over (Average inhibition percentage over or under 25% inhibition of calcification.)
Inhibition of calcification (%) Heart (tissue calcification): Over (Average inhibition percentage over or under 25% inhibition of calcification.)
Inhibition of calcification (%) Kidney (tissue calcification): Over (Average inhibition percentage over or under 25% inhibition of calcification.)
BP recovery (%) (blood perfusion): Over (Average blood perfusion recovery over or under 25%.)

COCCCCCO[C@@H]1[C@@H](OP(=O)([O-])[O-])[C@H](OCCCCCOC)[C@@H](OP(=O)([O-])[O-])[C@@H](OP(=O)([O-])[O-])[C@H]1OP(=O)([O-])[O-].[Na+].[Na+].[Na+].[Na+].[Na+].[Na+].[Na+].[Na+] [Compound 9, 4,6-O-bis(5-methoxypentyl)-myo-inositol-1,2,3,5-tetrakis(phosphate) octasodium salt]
EC50 [1]: ≤ 5 µM
Inhibition of calcification (%) Aorta (tissue calcification): Under (Average inhibition percentage over or under 25% inhibition of calcification.)
Inhibition of calcification (%) Carotid (tissue calcification): Under (Average inhibition percentage over or under 25% inhibition of calcification.)
Inhibition of calcification (%) Femoral (tissue calcification): Over (Average inhibition percentage over or under 25% inhibition of calcification.)
Inhibition of calcification (%) Heart (tissue calcification): Over (Average inhibition percentage over or under 25% inhibition of calcification.)
Inhibition of calcification (%) Kidney (tissue calcification): Over (Average inhibition percentage over or under 25% inhibition of calcification.)
BP recovery (%) (blood perfusion): Over (Average blood perfusion recovery over or under 25%.)

— US20240109924A1, “IP4-4,6 SUBSTITUTED DERIVATIVE COMPOUNDS” (SANIFIT THERAPEUTICS, S.A., priority 2021, published 2024)
